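Assay format: 96-well plates, 48-hour exposure. GI50 is the concentration that inhibits growth by half.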 The source made the active and inactive calls. Cut-off read from the data, not from the text of the source: active = GI50 up to about 1.1 µM and inactive = higher.
Assays:
Assay in all cases: NCI anticancer screen, dose series, 48 h
M14 = tested on: M14
A549 = tested on: A549
SNB-19 = tested on: SNB-19
U-251 = tested on: U-251
UACC-257 = tested on: UACC-257
MDA-MB-231 = tested on: MDA-MB-231
MDA-MB-435 = tested on: MDA-MB-435
IGROV-1 = tested on: IGROV-1
RPMI-8226 = tested on: RPMI-8226
OVCAR-3 = tested on: OVCAR-3
SR = tested on: SR
MOLT-4 = tested on: MOLT-4
SK-OV-3 = tested on: SK-OV-3
NCI-H460 = tested on: NCI-H460
HOP-92 = tested on: HOP-92
K562 = tested on: K562
KM12 = tested on: KM12
SK-MEL-28 = tested on: SK-MEL-28
NCI-H226 = tested on: NCI-H226
NCI-H522 = tested on: NCI-H522

Measured: GI50

COC(=O)N1CC2(CO)C3CC=C(C(=O)Nc4ccccc4Br)C2C1C3Br (centres undefined)
inactive: M14 > 50 µM | A549 > 50 µM | SNB-19 > 50 µM | U-251 > 50 µM | UACC-257 > 50 µM | MDA-MB-231 > 50 µM | MDA-MB-435 > 50 µM | IGROV-1 > 50 µM | RPMI-8226 > 50 µM | OVCAR-3 > 50 µM | SR > 50 µM | MOLT-4 > 50 µM | SK-OV-3 > 50 µM | NCI-H460 > 50 µM | HOP-92 > 50 µM | K562 > 50 µM | KM12 > 50 µM | SK-MEL-28 > 50 µM | NCI-H226 > 50 µM

S=C1Nc2ccccc2SC1c1ccccc1 (centres undefined)
inactive: M14 > 100 µM | A549 > 100 µM | SNB-19 39 µM | U-251 47.1 µM | UACC-257 > 100 µM | MDA-MB-231 66.1 µM | MDA-MB-435 > 100 µM | IGROV-1 > 100 µM | RPMI-8226 > 100 µM | NCI-H522 > 100 µM | OVCAR-3 30.5 µM | SR 30.2 µM | MOLT-4 > 100 µM | SK-OV-3 35.8 µM | NCI-H460 > 100 µM | K562 94.8 µM | KM12 > 100 µM | SK-MEL-28 > 100 µM | NCI-H226 28.6 µM

CC(C)CC1N=C(OCc2ccccc2)OC1=O (centres undefined)
inactive: M14 > 100 µM | A549 > 100 µM | SNB-19 > 100 µM | U-251 > 100 µM | UACC-257 > 100 µM | MDA-MB-231 > 100 µM | MDA-MB-435 > 100 µM | IGROV-1 > 100 µM | RPMI-8226 > 100 µM | NCI-H522 > 100 µM | OVCAR-3 > 100 µM | MOLT-4 > 100 µM | SK-OV-3 > 100 µM | NCI-H460 > 100 µM | HOP-92 > 100 µM | K562 > 100 µM | KM12 > 100 µM | SK-MEL-28 > 100 µM | NCI-H226 > 100 µM

CCCCCCCCCCCCCCCCCCNC(=S)NC=C1C(=O)c2ccccc2C1=O
inactive: M14 10.3 µM | A549 13.2 µM | SNB-19 17.3 µM | U-251 4.73 µM | UACC-257 17.9 µM | MDA-MB-231 10.9 µM | MDA-MB-435 15.9 µM | IGROV-1 1.4 µM | RPMI-8226 14.2 µM | OVCAR-3 13.8 µM | SR 2.75 µM | MOLT-4 4.03 µM | SK-OV-3 16 µM | NCI-H460 12.1 µM | HOP-92 3 µM | KM12 10.7 µM | SK-MEL-28 16.9 µM | NCI-H226 8.32 µM

S=C(N1CCN(c2ccc(Cl)c(Cl)c2)CC1)N1CCN(c2ccc(Cl)c(Cl)c2)CC1
inactive: M14 15.6 µM | A549 16.3 µM | SNB-19 12.5 µM | U-251 14.7 µM | UACC-257 17.1 µM | MDA-MB-231 9.08 µM | MDA-MB-435 15.4 µM | IGROV-1 10.7 µM | RPMI-8226 18 µM | NCI-H522 10.9 µM | OVCAR-3 13.5 µM | SR 1.36 µM | MOLT-4 6.18 µM | SK-OV-3 12.5 µM | K562 12.2 µM | KM12 14.1 µM | SK-MEL-28 14.7 µM | NCI-H226 11.1 µM

c1ccc2c(c1)nc1n2CSCC1
inactive: M14 > 100 µM | A549 > 100 µM | SNB-19 > 100 µM | U-251 > 100 µM | UACC-257 > 100 µM | MDA-MB-231 > 100 µM | MDA-MB-435 > 100 µM | IGROV-1 > 100 µM | RPMI-8226 > 100 µM | OVCAR-3 > 100 µM | SR > 100 µM | MOLT-4 > 100 µM | SK-OV-3 > 100 µM | NCI-H460 > 100 µM | HOP-92 > 100 µM | K562 > 100 µM | KM12 > 100 µM | SK-MEL-28 > 100 µM | NCI-H226 > 100 µM

O=C1CN(c2cccc(C(F)(F)F)c2)C(=O)CN1NCNN1CC(=O)N(c2cccc(C(F)(F)F)c2)CC1=O
inactive: M14 > 100 µM | A549 > 100 µM | SNB-19 > 100 µM | U-251 > 100 µM | UACC-257 > 100 µM | MDA-MB-231 > 100 µM | MDA-MB-435 > 100 µM | IGROV-1 > 100 µM | RPMI-8226 > 100 µM | NCI-H522 52.5 µM | SR > 100 µM | MOLT-4 > 100 µM | SK-OV-3 > 100 µM | NCI-H460 > 100 µM | K562 > 100 µM | KM12 36 µM | SK-MEL-28 > 100 µM

CN(C)CCn1c(=O)oc2cc(C(=O)CN3CCOCC3)ccc21
inactive: M14 > 100 µM | SNB-19 > 100 µM | U-251 > 100 µM | UACC-257 > 100 µM | MDA-MB-231 > 100 µM | MDA-MB-435 > 100 µM | IGROV-1 > 100 µM | RPMI-8226 > 100 µM | OVCAR-3 > 100 µM | SR > 100 µM | MOLT-4 > 100 µM | SK-OV-3 > 100 µM | NCI-H460 > 100 µM | K562 > 100 µM | KM12 > 100 µM | SK-MEL-28 > 100 µM | NCI-H226 > 100 µM

Cc1ccc(C)n1-n1c(Cc2ccccc2)n[nH]c1=O
inactive: M14 > 100 µM | A549 > 100 µM | SNB-19 > 100 µM | U-251 > 100 µM | UACC-257 46 µM | MDA-MB-231 > 100 µM | MDA-MB-435 > 100 µM | IGROV-1 > 100 µM | RPMI-8226 91.2 µM | NCI-H522 49.2 µM | OVCAR-3 > 100 µM | SR > 100 µM | MOLT-4 > 100 µM | SK-OV-3 > 100 µM | NCI-H460 > 100 µM | K562 > 100 µM | KM12 > 100 µM | SK-MEL-28 > 100 µM | NCI-H226 > 100 µM

O=c1cc(CN2CCCCC2)nc2ccc3c(O)cc(CN4CCCCC4)nc3n12
inactive: M14 > 100 µM | A549 > 100 µM | SNB-19 > 100 µM | U-251 > 100 µM | UACC-257 88.9 µM | MDA-MB-231 > 100 µM | MDA-MB-435 > 100 µM | IGROV-1 > 100 µM | RPMI-8226 > 100 µM | OVCAR-3 > 100 µM | SR > 100 µM | MOLT-4 89.7 µM | SK-OV-3 48.4 µM | NCI-H460 > 100 µM | HOP-92 26.2 µM | K562 > 100 µM | KM12 > 100 µM | SK-MEL-28 > 100 µM | NCI-H226 > 100 µM

C#C/C=C\CCCCCCCCCCCCCC/C=C\CCCCC#CC(O)C#CCCCC/C=C\CCCCCC/C=C/C(O)C#C (centres undefined)
inactive: M14 12.9 µM | A549 12.1 µM | SNB-19 25.1 µM | U-251 31.9 µM | UACC-257 27 µM | MDA-MB-231 34.2 µM | MDA-MB-435 4.58 µM | IGROV-1 13.6 µM | NCI-H522 5.7 µM | OVCAR-3 32.2 µM | SR 14.1 µM | MOLT-4 10.1 µM | SK-OV-3 > 75 µM | NCI-H460 39.9 µM | HOP-92 16.4 µM | K562 23.8 µM | KM12 7.08 µM | SK-MEL-28 21 µM | NCI-H226 32.1 µM

COC(OC)[C@@H]1OC[C@H](n2ccc(=O)[nH]c2=O)[C@H]1O
inactive: M14 > 100 µM | A549 > 100 µM | SNB-19 67.3 µM | U-251 > 100 µM | UACC-257 > 100 µM | MDA-MB-231 > 100 µM | MDA-MB-435 > 100 µM | IGROV-1 > 100 µM | RPMI-8226 > 100 µM | OVCAR-3 > 100 µM | SR > 100 µM | MOLT-4 > 100 µM | SK-OV-3 > 100 µM | NCI-H460 > 100 µM | HOP-92 > 100 µM | K562 > 100 µM | KM12 > 100 µM | SK-MEL-28 > 100 µM | NCI-H226 > 100 µM

C[n+]1c(-c2ccc(/C=N/NC(=S)N/N=C/c3ccc(-c4cn5ccsc5[n+]4C)cc3)cc2)cn2ccsc21
inactive: M14 > 100 µM | A549 > 100 µM | SNB-19 > 100 µM | U-251 > 100 µM | UACC-257 > 100 µM | MDA-MB-231 > 100 µM | MDA-MB-435 37.7 µM | IGROV-1 > 100 µM | RPMI-8226 62.1 µM | NCI-H522 > 100 µM | SR > 100 µM | MOLT-4 > 100 µM | SK-OV-3 > 100 µM | NCI-H460 > 100 µM | K562 > 10 µM | KM12 > 100 µM | SK-MEL-28 > 100 µM

CC(C)=C[C@@H]1C[C@H](C)c2c(O)cc(C)c3c2C1=C(C)C(=O)C3=O [ELISABATIN A]
inactive: M14 14 µM | A549 10.1 µM | SNB-19 14.4 µM | U-251 13.8 µM | UACC-257 17.6 µM | MDA-MB-231 15.6 µM | MDA-MB-435 15.6 µM | IGROV-1 16.7 µM | RPMI-8226 18.2 µM | NCI-H522 15.3 µM | OVCAR-3 14.5 µM | MOLT-4 28.6 µM | SK-OV-3 16.7 µM | NCI-H460 18 µM | HOP-92 13.4 µM | K562 17.2 µM | KM12 15.6 µM | SK-MEL-28 15.5 µM | NCI-H226 16.3 µM

CN(C)C(=O)Oc1ccc[n+](C)c1 [PYRIDOSTIGMINE BROMIDE]
inactive: SNB-19 > 100 µM | U-251 > 100 µM | UACC-257 > 100 µM | MDA-MB-231 > 100 µM | MDA-MB-435 > 100 µM | IGROV-1 > 100 µM | RPMI-8226 > 100 µM | NCI-H522 > 100 µM | OVCAR-3 > 100 µM | SR 8.28 µM | MOLT-4 > 100 µM | NCI-H460 > 100 µM | K562 > 100 µM | KM12 > 100 µM | SK-MEL-28 > 100 µM | NCI-H226 > 100 µM

— ChEMBL document CHEMBL1201862, “PubChem BioAssay data set” (2004)
